Among the test systems are HCC-2998 colon; IGROV1 ovarian; HL-60(TB) leukemia; OVCAR-4 ovarian; NCI-H460 lung; U251 CNS; SF-539 CNS; RXF 393 renal; 786-0 renal; UO-31 renal; NCI-H226 lung; T-47D breast; UACC-257 melanoma; SF-268 CNS.
Test in all cases: DTP human tumour cell line panel, 48 h

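Following 48 hours of exposure in 96-well plates, responses at five concentrations were used to interpolate endpoints linearly. At the TGI there is no net growth.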 Where a SMILES comes first, the peptide text is derived from it. The star is where a group is joined. Boc = CC(C)(C)OC(=O)*; nBu = CCCC*

By TGI is commonly meant the concentration giving total growth inhibition. A higher TGI goes with less potent growth arrest. `CC(Oc1ccc(Cl)cc1Cl)C(=O)NN1C(=O)CC(=O)N(c2ccccc2)C1=S` (configuration not stated): the TGI is over 100 µM with HCC-2998 colon; over 100 µM in the experiment with IGROV1 ovarian; 5.73 µM in the experiment with HL-60(TB) leukemia; over 100 µM in the experiment on OVCAR-4 ovarian; over 100 µM in the experiment with NCI-H460 lung; over 100 µM with U251 CNS. For the same compound, the total growth inhibition concentration (TGI) in the experiment on SF-539 CNS, in the experiment on RXF 393 renal, with 786-0 renal, in the experiment with UO-31 renal, with NCI-H226 lung and in the experiment with T-47D breast was over 100 µM in each case. Moreover, the TGI in the experiment on UACC-257 melanoma and with SF-268 CNS was over 100 µM in each case.

Consider `COC(=O)/C=C\C(C#N)(C#N)N=Cc1ccc(OC)cc1`, for which the TGI with HCC-2998 colon stood at 41.1 µM; in the experiment on IGROV1 ovarian, 28.7 µM; with HL-60(TB) leukemia, 5.62 µM; in the experiment with OVCAR-4 ovarian it was 12.8 µM; in the experiment with NCI-H460 lung, 42.5 µM; in the experiment on U251 CNS, 35.2 µM. The total growth inhibition concentration (TGI) in the experiment on SF-539 CNS was found to be 11.2 µM; in the experiment with RXF 393 renal, 5.42 µM; in the experiment on 786-0 renal it was 4.62 µM; with UO-31 renal, 5.96 µM; with NCI-H226 lung it was 25.3 µM; in the experiment on T-47D breast, 4.53 µM. Moreover, the total growth inhibition concentration (TGI) was 11.6 µM with UACC-257 melanoma and 11.5 µM in the experiment with SF-268 CNS.

In the case of `COc1ccc2nc3cc(Cl)ccc3c(NCCCN3CCN(CCCNc4ccc5nnn6c7ccccc7c(=O)c4c56)CC3)c2c1`, the TGI was over 9.86 µM with HCC-2998 colon; over 25 µM in the experiment on IGROV1 ovarian; over 18.7 µM in the experiment on HL-60(TB) leukemia; over 25 µM in the experiment with OVCAR-4 ovarian; over 25 µM with NCI-H460 lung; over 25 µM with U251 CNS. Also, the TGI is 8.14 µM in the experiment with SF-539 CNS; 6.25 µM in the experiment with RXF 393 renal; over 25 µM in the experiment with 786-0 renal; over 25 µM in the experiment on UO-31 renal; over 25 µM with NCI-H226 lung; over 25 µM in the experiment on T-47D breast. The total growth inhibition concentration (TGI) in the experiment with UACC-257 melanoma and with SF-268 CNS was over 25 µM in each case.

`CCOc1nc2c(N3CCCC3)nc(N3CCNCC3)nc2nc1NCc1ccccc1`: the TGI in the experiment with HCC-2998 colon is 2.62 µM; with IGROV1 ovarian, 2.64 µM; in the experiment with HL-60(TB) leukemia, 2.99 µM; in the experiment on OVCAR-4 ovarian, 6.05 µM; in the experiment with NCI-H460 lung, 2.91 µM; in the experiment on U251 CNS, 2.39 µM. Further, the TGI is 2.85 µM with SF-539 CNS; 2.29 µM in the experiment on RXF 393 renal; 2.68 µM in the experiment with 786-0 renal; 2.6 µM with UO-31 renal; 3.82 µM in the experiment with NCI-H226 lung; 3.13 µM in the experiment with T-47D breast. In addition, the TGI in the experiment on UACC-257 melanoma was 3.25 µM; in the experiment with SF-268 CNS, 3.03 µM.

Regarding `CCCCOc1ccc(CC(NC(=O)OC(C)(C)C)C(=O)NC(C)C(=O)NC(Cc2ccccc2)C(=O)NCC(N)=O)cc1` (configuration not stated) (Boc-Y(nBu)AFG-NH2; configuration not given here), the concentration for total growth inhibition (TGI) in the experiment with HCC-2998 colon, in the experiment on IGROV1 ovarian, in the experiment with HL-60(TB) leukemia, in the experiment with OVCAR-4 ovarian, with NCI-H460 lung and with U251 CNS was over 100 µM in each case. Also, the TGI in the experiment on SF-539 CNS, in the experiment on RXF 393 renal, in the experiment on 786-0 renal, in the experiment on UO-31 renal, in the experiment on NCI-H226 lung and in the experiment on T-47D breast was over 100 µM in each case. Besides, the concentration for total growth inhibition (TGI) in the experiment with UACC-257 melanoma and with SF-268 CNS was over 100 µM throughout.

Turning to `C/C(C=O)=C/[C@@]1(C)O[C@@H](C)[C@@](C)(O)[C@@H]1O`, the concentration for total growth inhibition (TGI) was 48.2 µM in the experiment on HCC-2998 colon; over 100 µM in the experiment on IGROV1 ovarian; over 100 µM in the experiment with HL-60(TB) leukemia; over 100 µM with OVCAR-4 ovarian; 64 µM in the experiment on NCI-H460 lung; over 100 µM with U251 CNS. Moreover, the total growth inhibition concentration (TGI) is over 100 µM in the experiment with SF-539 CNS; over 100 µM with RXF 393 renal; 34.6 µM with 786-0 renal; 4.71 µM in the experiment on UO-31 renal; over 100 µM in the experiment on NCI-H226 lung; over 100 µM in the experiment on T-47D breast. In addition, the TGI with UACC-257 melanoma was over 100 µM; in the experiment with SF-268 CNS, 63.7 µM.

Turning to `COc1ccc2nc3ccc(OC)cc3c(SCCCl)c2c1`, the TGI in the experiment with HCC-2998 colon was over 100 µM; in the experiment on IGROV1 ovarian, over 100 µM; in the experiment with HL-60(TB) leukemia it was over 21.1 µM; in the experiment on OVCAR-4 ovarian, over 85 µM; in the experiment with NCI-H460 lung, over 100 µM; in the experiment on U251 CNS it was over 100 µM. For the same compound, the TGI in the experiment on SF-539 CNS was over 50.5 µM; with RXF 393 renal, over 48.1 µM; in the experiment with 786-0 renal, 30.1 µM; in the experiment on UO-31 renal, over 100 µM; with NCI-H226 lung, over 100 µM; in the experiment with T-47D breast it was over 97.2 µM. Also, the TGI in the experiment with UACC-257 melanoma and in the experiment with SF-268 CNS was over 100 µM each time.

Turning to `CC(Oc1ccccc1Cl)C(=O)NN1C(=O)CC(=O)N(c2ccc(Cl)cc2)C1=S` (configuration not stated), the TGI in the experiment on HCC-2998 colon is over 100 µM; in the experiment on IGROV1 ovarian it was over 100 µM; in the experiment on HL-60(TB) leukemia, 8.68 µM; with OVCAR-4 ovarian, over 100 µM; in the experiment with NCI-H460 lung it was over 100 µM; in the experiment on U251 CNS, over 100 µM. The total growth inhibition concentration (TGI) in the experiment on SF-539 CNS is over 100 µM; with RXF 393 renal it was 90.4 µM; in the experiment on 786-0 renal, over 100 µM; in the experiment with UO-31 renal, over 100 µM; in the experiment with NCI-H226 lung it was over 100 µM; with T-47D breast, over 100 µM. Moreover, the TGI in the experiment with UACC-257 melanoma and in the experiment with SF-268 CNS was over 100 µM in each case.

The values above are taken from PubChem BioAssay (NCI).
